Values after ≈ are worked out from the molar mass of the structure shown.
B1: RamR: multidrug resistance regulator from Salmonella typhimurium, template for sensor evolution (protein)
chain: MVARPKSEDKKQALLEAATQAIAQSGIAASTAVIARNAGVAEGTLFRYFATKDELINTLYLHLRQDLCQSLIMELDRSITDAKMMMRFIWNSGISWGLNHPARHRAIRQLAVSEKLTKETHQRDLDMFPELRDILHRRVLMVFMSDEYRAFGDGLFLALAETTMDFAARDPARAGEYIALGFEAMWRALTREEQ
modifications: Description of sequence peptide sensor; Name PAP4; This sensor binds to papaverine
notes: multidrug resistance regulator from Salmonella typhimurium, template for sensor evolution

What was measured:
[1] = Solubility limit of BIAs in 1% DMSO; assay type: physicochemical; details: used as maximum ligand concentration
Procedure: (a) Transfer functions for all four generations of RamR variants with five different BIAs. The maximum ligand concentration was chosen based on the compound's solubility limit in 1% DMSO, 100 μM for Noscapine and 250 μM for all other BIAs. Fluorescent measurements for each condition were an average of three biological replicates. (b) Background fluorescence measurements for all RamR generations. The same promoter was used to express variants from each evolutionary trajectory (see methods) (c) Orthogonality matrix of all evolved sensors. Fold-response is shown for all BIAs for the native RamR protein, the first, second, third, and fourth generations from top to bottom, respectively. 100 μM of the indicated BIA was applied in all conditions. Measurements for each condition were an average of three biological replicates.

RamR = target: T1, RamR (Salmonella typhimurium, UniProt Q8ZR43); assay: Biosensor response assay: fluorescence response of multidrug resistance regulators to target BIAs; assay type: cell-based, Escherichia coli; details: E. coli DH10B, pReg + pGFP (sfGFP); glaucine 1 mM, noscapine 100 uM, papaverine 500 uM, rotundine 250 uM, tetrahydropapaverine 1 mM
T1 construct: expressed in transfected cells; host or cells: E. coli DH10B co-transformed with pReg (regulator) and pGFP (reporter)
T1 sequence (Q8ZR43 whole entry, looked up): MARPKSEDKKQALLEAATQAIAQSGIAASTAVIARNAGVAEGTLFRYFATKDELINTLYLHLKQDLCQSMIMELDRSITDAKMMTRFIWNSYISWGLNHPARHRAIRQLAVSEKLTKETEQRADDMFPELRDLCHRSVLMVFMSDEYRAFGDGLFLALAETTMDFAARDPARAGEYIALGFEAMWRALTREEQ
Procedure: To identify a biosensor with some degree of BIA affinity to serve as a suitable scaffold for evolution, the responsiveness of six well characterized multidrug resistance regulators, QacR, TtgR, RamR, SmeT, NalD, and Bm3R1 to the target BIAs were assayed. Regulators were constitutively expressed on one plasmid (pReg) that was co-transformed with another plasmid bearing the regulator's cognate promoter expressing sfGFP (pGFP). Promoters for QacR and TtgR were obtained from the literature while promoters for the remainder were designed by either placing the sensor's operator downstream a medium strength promoter (Bm3R1) or by modifying the −35 or −10 regions of the sensor's native promoter towards the E. coli consensus (NalD, SmeT, RamR) [18*, 18**] if necessary to produce sufficient transcription (FIG. 7a). The ability of each regulator to repress transcription was confirmed by measuring the promoter activity with and without the expression of the cognate sensor via fluorescence (FIG. 7b). […]
Promoters for TtgR and QacR were derived from the literature. […] 100 μL of the cell resuspension for each condition was transferred to a 96 well microtiter plate (Corning, Product #: 3904), from which the fluorescence (Ex: 485 nm, Em: 509 nm) and absorbance ([…]) was measured using the Tecan Infinite M1000 plate reader.

Row | Molecule | solubility limit in 1% DMSO [1] | Fluorescence response to target BIAs (RamR)
1 | COc1ccc2c(c1OC)C(=O)O[C@@H]2[C@H]1c2c(cc3c(c2OC)OCO3)CCN1C [Noscapine, noscapine] | 100 µM (≈ 41.3 µg/mL) | –
2 | B1 | – | moderately responsive

Source: US20250051862A1, “METHODS AND COMPOSITIONS RELATED TO ENGINEERED BIOSENSORS” (priority 2021, published 2025)
